# Test results published in patent US20240164378A1, “SYNERGISTIC PLANT GROWTH STIMULANT COMPOSITIONS OF POTASSIUM MONO/DI-FORMATE WITH CARBOXYLIC ACIDS” (FERTIS INDIA PVT. LTD., priority 2021, published 2024).
# Tests used:
# [1] = system: paddy grains; experiment: Total phenol estimation in paddy grains; assay type: in vivo; details: treatment applied with farmer practice (NPK)
# [2] = system: paddy grains; experiment: Total protein content in paddy grains; assay type: in vivo; details: treatment applied with farmer practice (NPK)
SMILES,Total phenol Conc ppm in paddy grains [1],% of Protein (total protein content in paddy grains) [2]
CC1=CC(=O)CC(C)(C)[C@@]1(O)/C=C/C(C)=C\C(=O)O [Abscisic acid],18.78 ppm,0.008%
C=C1C[C@]23C[C@@]1(O)CC[C@H]2[C@@]12C=C[C@H](O)[C@@](C)(C(=O)O1)[C@H]2[C@@H]3C(=O)O [Gibberellic acid],16.7 ppm,0.008%
O=CO.O=C[O-].[K+] [Potassium diformate],19.97 ppm,0.012%
COc1ccc2[nH]cc(CCNC(C)=O)c2c1 [Melatonin],17.9 ppm,–
O=C[O-].[K+] [Potassium formate],19.88 ppm,0.011%
